Source: patent US20250352555A1, “METHOD OF INCREASING IMMUNE CELL ACTIVATION AND/OR TREATING CANCER USING DIBENZOXAZEPINONES” (VASCULAR THERAPEUTICS PTY LTD, priority 2022, published 2025)

Legend:
[1] = system: p-ERK; assay: Immunohistochemistry of MDA-MB-435 tumors, p-ERK; type: in vivo, mouse; settings: SCID mice, 20 mg/kg i.t.
Text: Immunohistochemical staining and analyses. Rabbit monoclonal anti-CD3 (cat. no. ab16669; mouse, rat and human reactive), rabbit monoclonal anti-PD-1 (cat. no. ab214421), rabbit monoclonal anti-CD68 (cat. no. ab125212) antibodies were obtained from Abcam, rabbit monoclonal anti-phospho-ERK (Thr^202/Tyr^204) (cat. no. CST4370), rabbit monoclonal total ERK (cat. no. CST4695), antibodies were obtained from Cell Signaling Technology. Rabbit polyclonal anti-PD-L1 (cat. no. PA5-20343) antibody was obtained from ThermoFisher.
Formalin fixed, paraffin embedded sections were prepared from tumors. Heat-induced epitope retrieval was applied to all deparaffinized sections (4 μm sections on Superfrost slides) with citrate buffer, pH 6.0 for 5 min at 110° C. Sections were blocked with Dual Endogenous Enzyme Block (DAKO, S2003) for 10 min and then with 2% skim milk for 20 min. Slides were incubated with primary antibody for 60 min at room temperature or overnight at 4° C. and then for 10 min with probe of MACH3 Rabbit AP-Polymer Detection solution (Biocare Medical, M3R533 G, H, L). […] Integrated optical density (IOD) or area of positive staining (red chromagen) was assessed using Image-Pro Plus software (Cybernetics, Bethesda, MD, USA). Positive staining was the average of quantitation in 4-8 fields of view under 20× or 40× objectives.

[2] = system: JUN; assay: Western blotting time course for JUN, Jurkat T cells; type: cell-based, human; settings: Western blot time course
Description: (§1) Western blotting. Cells were treated with compounds and times indicated and total cell lysates were prepared in RIPA buffer. Lysates (10 μg) were resolved by SDS-PAGE and transferred to Immobilon-P polyvinylidene difluoride (PVDF) membranes (Millipore, USA).
(§2) Membranes were blocked with 5% skim milk and incubated with rabbit monoclonal anti-c-Jun (Abcam, cat. no. ab32137; mouse, rat and human reactive) antibody, rabbit monoclonal anti-PD-1 (Abcam, cat. no. ab214421) antibody, mouse monoclonal β-actin antibody (Sigma-Aldrich, cat. no. A5316), anti-phospho-SAPK/JNK (Thr^183/Tyr^185) (98F2) (CST, cat. no. 4671) antibody, anti-phospho-p44/42 MAPK (ERK1/2) (Thr^202/Tyr^204) (D13.14.4E) (CST, cat. no. 4370) antibody, anti-phospho-p38 MAPK (Thr^180/Tyr^182) (D3F9) (CST, cat. no. 4511) antibody, anti-SAPK/JNK antibody (CST, cat. no. 9252), anti-p44/42 MAPK (ERK1/2) (137F5) antibody (CST, cat. no. 4695), anti-p38 MAPK antibody (CST, cat. no. 9212), anti-DUSP8 antibody (Abcam, cat. no. ab198175) or anti-c-MAF (BLR045F) antibody (Abcam, cat. no. ab243901). […] Chemiluminescence was detected using the Western Lightning Chemiluminescence system (Thermo Scientific, USA) and ImageQuant™ LAS 4000 biomolecular imager (GE Healthcare Life Sciences, USA). Band intensity in images generated with the LAS 4000 was quantified using NIH Image J. […]

[3] = system: p-ERK; assay: Western blotting time course for p-ERK, Jurkat T cells; type: cell-based, human; settings: Western blot time course
Description: as §1, §2

[4] = system: JUN; assay: Western blotting for JUN, MDA-MB-435 cells; type: cell-based, human; settings: MDA-MB-435 cells (BRAF^V600E), 24 h, dose-dependent
Description: as §1, §2

[5] = target: T1, CD28 (Macaca fascicularis, UniProt Q0PDN3); assay: Surface plasmon resonance (SPR), Biacore T200; type: binding; settings: BT2 up to 20 μM (8-point dilution series), 12° C., 20 mM HEPES, 150 mM NaCl, 5% DMSO, pH 7.5
T1 construct: purchased Sino Biological
T1 sequence (Q0PDN3 19-152): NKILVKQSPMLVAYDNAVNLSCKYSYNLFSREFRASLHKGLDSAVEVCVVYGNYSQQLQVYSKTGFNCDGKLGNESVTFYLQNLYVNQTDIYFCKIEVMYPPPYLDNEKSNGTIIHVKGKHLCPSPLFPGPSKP
Description: Surface plasmon resonance (SPR). Using a Biacore T200 (Cytiva), CD28 (Sino Biological) was immobilised onto a Series S sensor Chip CM5 (GE) by amine coupling to a level of ˜3000 RU on flow cells 2 and 4 at 25° C., with a flowrate of 10 μl/min. 0.2 M EDC+0.05 M NHS was injected for 420 s followed by CD28 (37.5 μg/ml in 10 mM acetate pH 5) for 450 s with the flowrate reduced to 2 μl/min. Unreacted NHS was blocked with an injection of 1 M ethanolamine-HCl pH 8.5 for 420 s. Flow cells 1 and 3 were used as the reference cells, activated and blocked as described above. Immobilisation running buffer was 20 mM HEPES, 150 mM NaCl, pH 7.5. The SPR run was performed at 12° C. with 20 mM HEPES, 150 mM NaCl, 5% DMSO, pH 7.5 as the running buffer. […] The concentration was confirmed using ^1H 1D NMR. […] Samples were injected for 60 s with a dissociation time of 60 s at a flow rate of 40 μl/min. Solvent correction was performed to correct for excluded volume effects. The integrity of the coupled CD28 was validated by injection of the known binding partner CD80 (Sino Biological) (Waite et al., 2020) (5 point dilution series with 2 μM top concentration).
In T cells, the c-jun promoter is activated by anti-CD28 engagement. CD28, a homodimeric cell surface glycoprotein, is a co-stimulatory signal required for T cell activation. The inventors investigated whether BT2 might interact with CD28. […]

## CCOC(=O)Nc1ccc2c(c1)C(=O)N(CC)c1ccccc1O2 [BT2, (10-ethyl-11-oxo-10,11-dihydro-dibenzo[b,f][1,4]oxazepin-2-yl)-carbamic acid ethyl ester]
[1]
  ERK phosphorylation in the tumors (IHC): suppression of ERK phosphorylation
[2]
  time to induction of JUN at the protein level: 2 to 4 h
[3]
  levels of ERK phosphorylation: no effect
[4]
  JUN expression (Western blot): increased
[5]
  binding to CD28 (SPR sensorgram): bound to CD28 in a dose-dependent manner
